In patent US20240360089A1, “Metabolically Stable HDAC Inhibitors with Trifluoromethylpyruvamide as Metal-Binding Group” (The University of Toledo, priority 2023, published 2024):
Where two headings read alike, the source gives them in different places.

Assays:
sixty cell lines [1] = test: NCI 60 cell five-dose assay; type: cell-based; conditions: Total Growth Inhibition
[2] = tested on: HeLa cervical cancer cell line; test: Growth inhibition assay (methylene blue), HeLa; type: cell-based; conditions: Homo sapiens, Table 4, unit inferred
Procedure: (§1) Cell feasibility was examined using methylene blue staining. Cells were plated at a rate of 5000/well in 96 well plates (n=3) respectively and treated the next day. Three days after treatment, cells were fixed/stained in methylene blue saturated in 50% ethanol for 30 min at room temperature. Excessive water was used to wash off extra dye from the plates.

[3] = tested on: MDA-MB-231 breast cancer cell line; test: Growth inhibition assay (methylene blue), MDA-MB-231; type: cell-based; conditions: Homo sapiens, Table 4, unit inferred
Procedure: as §1

[4] = tested on: NCI-H522 lung cancer cell line; test: Growth inhibition / cell viability assay (methylene blue), NCI-H522; type: cell-based; conditions: Homo sapiens
Procedure: as §1

[5] = tested on: MDA-MB-468 breast cancer cell line; test: Growth inhibition assay (methylene blue), MDA-MB-468; type: cell-based; conditions: Homo sapiens, Table 4, unit inferred
Procedure: as §1

[6] = tested on: U2OS osteosarcoma cell line; test: Growth inhibition assay (methylene blue), U2OS; type: cell-based; conditions: Homo sapiens, Table 4, unit inferred
Procedure: as §1

HCT116 cells = test: Growth inhibition / cell viability assay (methylene blue), HCT116; type: cell-based, human; conditions: for IC50: Homo sapiens, HCT-116
Procedure: as §1

[7] = tested on: HT1080 fibrosarcoma cell line; test: Growth inhibition assay (methylene blue), HT1080; type: cell-based; conditions: Homo sapiens, HT-1080, Table 4, unit inferred
Procedure: as §1

PARP1 = test: Western blot analysis of PARP1 cleavage in HCT116 cells; type: cell-based, human; conditions: HCT116 cells treated for 24 h; measure of caspase dependent cell death
Procedure: FIG. 13: Western blot analysis of PARP1 cleavage. HCT116 cells were treated with compounds 83, 84, and 85 at the indicated concentrations for 24 hr. Western blots were probed with an antibody that recognizes a cleaved form of PARP (Cell Signaling Technology 5626) as a measure of caspase dependent cell death.
To determine whether the compounds herein induced apoptosis, the enzyme Poly (ADP ribose) polymerase 1 (PARP1) was analyzed by western blotting. Caspase-dependent proteolytic cleavage of PARP1 is one of the hall marks of apoptosis and antibodies that specifically recognize the cleavage products are available. […] HCT116 cells were treated with compounds 83, 84, and 85 for 24 h.
(§2) NCI-H522 cell pellets obtained were lysed using lysis buffer containing 50 mM Tris (pH 7.4), 150 mM NaCl, 0.5% NP-40, (supplemented with 1 μg/ml aprotinin, 2 μg/ml leupeptin, 1 μg/ml pepstatin A, 1 mM DTT, and […]) for 30 minutes on ice and centrifuged at 13×10^3 g for 25 minutes at 4° C. The protein levels of the obtained lysates were normalized using BCA Protein Assay Kit (Pierce) and separated by SDS-polyacrylamide gel electrophoresis (12.5% acrylamide). Transfer to polyvinylidene difluoride membranes (Millipore) was followed by obstruction of membranes with blocking buffer containing 5% (w/v) non-fat dry milk dissolved in PBST [1×PBS containing 0.05% (v/v) Tween 20] for 1 hour at room temperature. Membranes were then incubated with corresponding primary antibodies overnight at 4° C. The membranes were then washed (3×15 min each) with PBST and incubated with secondary antibodies conjugated to horse-radish peroxidase, obtained from Biorad, and used at a dilution of 1:10,000. Bound antibodies were detected using enhanced chemiluminescence (Biorad).

sixty cell lines [8] = test: NCI 60 cell one-dose assay; type: cell-based; conditions: result in words
[9] = tested on: acetyl-H3 and pan-acetyl-lysine; test: Hyperacetylation assay by western blot; type: cell-based, human; conditions: […], 5, and 10 μM, dose dependent
Procedure: The hallmark of HDAC inhibition is the hyperacetylation of several proteins which are substrates for HDACs. Thus, histone H3 hyperacetylation assay of some active compounds was carried out by western blot using antibodies for Histone H3 and pan-acetyl lysine.
as §2

WI38 cells = test: Cell survival assay, normal cell line WI38; type: cell-based; conditions: Homo sapiens, WI-38, FIG. 14A, maximum 30 μM
Description: (§3) This reaffirms the selectivity of TFPAs for cancer cells over normal cells.
(§4) HCT116 human colon cancer cells, NCI-H522 human lung cancer cells, HT1080 fibrosarcoma cells, HeLa cervical cancer cells, U2OS osteosarcoma cells, MDA-MB-231 and MDA-MB-468 breast cancer cells, WI38 diploid human cell line, and human retinal pigment epithelial RPE cells were preserved in Dulbecco's Modified Eagle's medium (Mediatech, Inc.) supplemented with 10% calf serum (Atlanta Biologicals) or 10% fetal bovine serum (Gemini Bio-Products #100-106) and 1000 U/ml of both Penicillin and Streptomycin (Mediatech, Inc.) at 37° C. with 5% CO2. Cell feasibility was examined using methylene blue staining. Cells were plated at a rate of 5000/well in 96 well plates (n=3) respectively and treated the next day. Three days after treatment, cells were fixed/stained in methylene blue saturated in 50% ethanol for 30 min at room temperature. Excessive water was used to wash off extra dye from the plates.

RPE cells = test: Cell survival assay, normal cell line RPE; type: cell-based; conditions: Homo sapiens, FIG. 14A, maximum 30 μM
Description: as §3, §4

[10] = S9 fraction metabolic stability assay (LC-ESI-MS); type: in vitro ADME; conditions: human liver S9 fraction
Description: Previous studies established that trifluoromethyl ketones are metabolically unstable and reduced in vivo to trifluoromethyl alcohols (TFMAs). This metabolic reduction caused a major loss in activity. […] It was believed that in TFPAs, the hydrate form of the ketone is stabilized compared to TFMKs, and is therefore less susceptible to reductive metabolism. […] Metabolic stability studies are primarily conducted using liver microsomal assays, as the predominant cytochrome P450 enzymes present in them are responsible for the metabolism of most xenobiotics in the human body. However, P450 transformations are mostly oxidative in nature, precluding their use to assess the stability of ketone drugs against reductive metabolism. […] Thus, using a liver extract containing both cytosol and microsomal enzymes would be more appropriate for this assay. This was accomplished by using the S9 fraction, which is basically the supernatant obtained from centrifugation of hepatocytes at 9000 g and contains both liver cytosol and microsomal enzymes. LC-ESI-MS was used to monitor the reduction of TFPA 60 over time and it was compared with TFMK 91.
A protocol similar to the one previously employed by others using Human Liver S9 fractions instead of liver microsomes was used for the metabolism studies. The assay was initiated by incubating a mixture of the substrate (0.02 mM), buffer (0.1M), and NADPH (1 mM) at 37° C. for ten minutes, followed by addition of the S9 fraction (0.5 mg) to the mixture and gentle mixing. The total volume of the reaction mixture was maintained at 1 mL. […] The reactions in the aliquots were terminated by adding an equal volume of ethyl acetate, mixing thoroughly, and transferring into micro centrifuge tubes. They were vortexed for 2 minutes and then subjected to centrifugation at 10,000×g for 15 minutes to remove the proteins. The top organic layers were extracted and evaporated under reduced pressure. The organic residues from the aliquots were dissolved in methanol first, then diluted 1:1 with water, and analyzed using LC-ESI-MS. A 450 μL aliquot of compound 60 with concentration of 0.02 mM contains 9 nanomoles, which after evaporation, was dissolved in 500 μL of methanol to give 18 μM in concentration of 60. This was diluted 1:1 with water to give a final concentration of 9 μM, which was used for LC-ESI-MS. Similarly, 200 μL of TFMK 91 at a concentration of 0.02 mM contains 4 nanomoles, which after removing ethyl acetate, and dissolving in 250 μL of methanol gives 16 μM concentration of 91. This was diluted 1:1 with water to give 8 μM final concentration for LC-ESI-MS.
The solvent flow rate was 0.2 mL/min, and the sample injection volume was 20 μL. […]

[11] = stated in the method as reason for the sampling interval; cited from earlier work
[12] = Table 4, growth inhibition, unit inferred, read-out: IC50 H522
[13] = cap group SAR, HCT116 cell line, maximum concentration of 40 μM, read-out: IC50

Structure (SMILES)	TGI (sixty cell lines [1])	IC50 [3]	IC50 [4, 12]	IC50 [5]	IC50 [6]	IC50 (HCT116 cells; [13])	IC50 [7]	PARP1 cleavage (cleaved PARP1) (PARP1)	other results
O=C(CCCCCCNC(=O)C(O)(O)C(F)(F)F)Nc1nc2ccccc2s1 [Compound 61, N-(benzo[d]thiazol-2-yl)-7-(3,3,3-trifluoro-2,2-dihydroxypropanamido)heptanamide]	21.37 µM	1830 ± 350 nM	2.86 ± 0.36 µM	1310 ± 180 nM	1410 ± 180 nM	2.37 µM	2650 ± 210 nM		IC50 [2]: 1520 ± 230 nM
COc1ccc(-c2cnc(NC(=O)CCCCCCNC(=O)C(O)(O)C(F)(F)F)s2)cc1 [Compound 84, N-(5-(4-methoxyphenyl)thiazol-2-yl)-7-(3,3,3-trifluoro-2,2-dihydroxypropanamido)heptanamide]	8.51 µM							Absence of PARP1 cleavage	cytostatic / cytotoxic activity in NCI 60 assays (sixty cell lines [8]): cytotoxic effects; levels of acetylated H3 [9]: increased levels; levels of pan-acetyl-lysine [9]: increased levels
COc1ccc(NC(=O)CCCCCCNC(=O)C(O)(O)C(F)(F)F)cc1 [Compound 55, N-(4-methoxyphenyl)-7-(3,3,3-trifluoro-2,2-dihydroxypropanamido)heptanamide]						4.52 µM			IC50 (WI38 cells): > 30 µM; IC50 ([4]; cancer vs normal cells study, FIG. 14A, maximum 30 μM, read-out: IC50 NCI-H522): 8.05 µM; IC50 (RPE cells): > 30 µM; IC50 (HCT116 cells; cancer vs normal cells study, FIG. 14A, maximum 30 μM, read-out: IC50 HCT116): 3.13 µM; cell survival HCT116 (HCT116 cells; maximum concentration of 30 μM, FIG. 14B): < 20%
COc1ccc2sc(NC(=O)CCCCCCNC(=O)C(O)(O)C(F)(F)F)nc2c1 [Compound 83, N-(5-methoxybenzo[d]thiazol-2-yl)-7-(3,3,3-trifluoro-2,2-dihydroxypropanamido)heptanamide]	12.3 µM	810 ± 100 nM	3.23 ± 0.41 µM	3650 ± 110 nM	3290 ± 460 nM	2.18 µM	2280 ± 470 nM	Dose-dependent elevation of cleaved PARP1 was detectable	
O=C(CCCCCCC(=O)C(F)(F)F)Nc1ccccc1 [Compound 91, reference compound]						10.1 µM			time to complete disappearance (metabolic reduction) of parent M+1 peak ([10]; NADPH, 37° C., LC-ESI-MS, aliquots every 15 minutes): ≤ 15 min; metabolic reduction to the alcohol ([10]; result in words): quantitative biological reduction; half-life [11]: less than 30 minutes
